Results reported in patent US12601000B2, “Method for the hydroxylation of steroids” (ANNIKKI GMBH, priority 2020, dated 2026).
Values after ≈ are worked out from the molar mass of the structure shown. Read-outs that look alike come from different tables or passages of the source. Each block holds one molecule with its values, some of them ahead of it.

How the values were obtained:
[1] = Solubility limits of LCA and UDCA in organic solvents; assay type: physicochemical; details: organic solvent, organic solvent or mixture, thermodynamic from solid, read-out: solubility limit
Experimental: The organic solvent was added in increments of 100 μL, and the mixture was treated by shaking in a vortex shaker and optionally in an ultrasonic bath. It was visually assessed as to whether a clear solution was present.

[2] = system: Asanoa ferruginea (DSM-44099); assay: Test of bacterial strains for 7-hydroxylation of deoxycholic acid; assay type: cell-based; details: deoxycholic acid 0.5 mM, cultured up to 72 h, HPLC and GC/MS
Excerpt: (§1) The following bacterial strains were obtained from the German Strain Collection of Microorganisms and Cell Cultures (DSMZ [Deutsche Stammsammlung für Mikroorganismen und Zellkulturen]): Saccharothrix longispora (DSM-43749), Catellatospora citrae (DSM-44097), Streptomyces hygroscopicus subsp. hygroscopicus (DSM-40578) and Asanoa ferruginea (DSM-44099). The strains were cultivated under standard conditions as recommended by DSMZ. […] After a centrifugation step, supernatants of the cultures were extracted with ethyl acetate and analyzed by HPLC and GC/MS.

[3] = system: Catellatospora citrae (DSM-44097); assay: as above; assay type: cell-based; details: deoxycholic acid 0.5 mM, cultured up to 72 h, HPLC and GC/MS
Excerpt: as §1

[4] = system: Saccharothrix longispora (DSM-43749); assay: as above; assay type: cell-based; details: deoxycholic acid 0.5 mM, cultured up to 72 h, HPLC and GC/MS
Excerpt: as §1

[5] = system: Streptomyces hygroscopicus subsp. hygroscopicus (DSM-40578); assay: as above; assay type: cell-based; details: deoxycholic acid 0.5 mM, cultured up to 72 h, HPLC and GC/MS
Excerpt: as §1

solubility ([1]; 2-butanol): 53 mg/mL (≈ 135 mM) | solubility ([1]; 2-butanone): 10 mg/mL (≈ 25.5 mM) | solubility ([1]; CH2Cl2): 1.1 mg/mL (≈ 2.8 mM) | solubility ([1]; CHCl3/phenol): 21.3 mg/mL (≈ 54.3 mM) | solubility ([1]; CHCl3): 2.9 mg/mL (≈ 7.39 mM) | solubility ([1]; DMA): > 500 mg/mL | solubility ([1]; DMF): > 500 mg/mL | solubility ([1]; DMSO): > 500 mg/mL | solubility ([1]; Et2O): 2 mg/mL (≈ 5.09 mM) | solubility ([1]; Me—THF): 63.4 mg/mL (≈ 161 mM) | solubility ([1]; THF): 259 mg/mL (≈ 660 mM) | solubility ([1]; acetone): 8.8 mg/mL (≈ 22.4 mM) | solubility ([1]; cyclohexane): < 0.7 mg/mL | solubility ([1]; dioxane): 92.6 mg/mL (≈ 236 mM) | solubility ([1]; ethanol): 54.5 mg/mL (≈ 139 mM) | solubility ([1]; ethyl acetate (EtOAc)): 2.9 mg/mL (≈ 7.39 mM) | solubility ([1]; ethylene glycol): 16.6 mg/mL (≈ 42.3 mM) | solubility ([1]; hexane/EtOAc + 0.01% trifluoroacetic acid (TFA)): < 0.8 mg/mL | solubility ([1]; hexane/IPA 7:3 + 0.02% TFA): 12 mg/mL | solubility ([1]; hexane/IPA 8:2 + 0.01% TFA): 4 mg/mL | solubility ([1]; i Pr2O): < 0.5 mg/mL | solubility ([1]; isopropanol (IPA)): 47.5 mg/mL (≈ 121 mM) | solubility ([1]; methanol): > 100 mg/mL | solubility ([1]; methyl isobutyl alcohol (MIBA)): 35.7 mg/mL (≈ 90.9 mM) | solubility ([1]; methyl isobutyl ketone (MIBK)): 4.4 mg/mL (≈ 11.2 mM) | solubility ([1]; toluene): < 1 mg/mL
SMILES: C[C@H](CCC(=O)O)[C@H]1CC[C@H]2[C@@H]3[C@@H](O)C[C@@H]4C[C@H](O)CC[C@]4(C)[C@H]3CC[C@]12C [UDCA, ursodeoxycholic acid]

SMILES: C[C@H](CCC(=O)O)[C@H]1CC[C@H]2[C@@H]3CC[C@@H]4C[C@H](O)CC[C@]4(C)[C@H]3C[C@H](O)[C@]12C [deoxycholic acid, 3α,12α-dihydroxy-5β-cholanic acid]
7-hydroxylated product of deoxycholic acid in culture supernatant [2]: no indication of 7-hydroxylated products | 7-hydroxylated product of deoxycholic acid in culture supernatant [3]: no indication of 7-hydroxylated products | 7-hydroxylated product of deoxycholic acid in culture supernatant [4]: no indication of 7-hydroxylated products | 7-hydroxylated product of deoxycholic acid in culture supernatant [5]: a peak was noted the retention time of which corresponds to that of ursocholic acid
